From PubChem BioAssay (NCI)
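Growth conditions: 96-well plates. Treatment: test compound, 48 hours, 5 concentrations. Analysis: linear interpolation between bracketing concentrations; unreached endpoints set to highest concentration. GI50: concentration for 50% inhibition of growth. At the TGI there is no net growth.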

What was measured:
Assay in all cases: NCI anticancer screen, dose series, 48 h
[1] = system: 786-0 renal
[2] = system: A498 renal
[3] = system: A549 NSCLC
[4] = system: ACHN renal
[5] = system: BT-549 breast
[6] = system: CAKI-1 renal
[7] = system: CCRF-CEM leukemia
[8] = system: COLO 205 colon
[9] = system: DU-145 prostate
[10] = system: EKVX NSCLC
[11] = system: HCC-2998 colon
[12] = system: HCT-116 colon
[13] = system: HCT-15 colon
[14] = system: HL-60(TB) leukemia
[15] = system: HOP-62 NSCLC
[16] = system: HOP-92 NSCLC
[17] = system: HS 578T breast
[18] = system: HT29 colon
[19] = system: IGROV1 ovarian
[20] = system: K-562 leukemia
[21] = system: KM12 colon
[22] = system: LOX IMVI melanoma
[23] = system: M14 melanoma
[24] = system: MALME-3M melanoma
[25] = system: MDA-MB-231 breast
[26] = system: MDA-MB-435
[27] = system: MOLT-4 leukemia
[28] = system: NCI-H460 lung
[29] = system: NCI-H522 lung
[30] = system: NCI/ADR-RES ovarian
[31] = system: OVCAR-3 ovarian
[32] = system: OVCAR-4 ovarian
[33] = system: OVCAR-5 ovarian
[34] = system: OVCAR-8 ovarian
[35] = system: PC-3 prostate
[36] = system: RPMI-8226 leukemia
[37] = system: RXF 393 renal
[38] = system: SF-268 CNS
[39] = system: SF-295 CNS
[40] = system: SF-539 CNS
[41] = system: SK-MEL-2 melanoma
[42] = system: SK-MEL-28 melanoma
[43] = system: SK-MEL-5 melanoma
[44] = system: SK-OV-3 ovarian
[45] = system: SN12C renal
[46] = system: SNB-19 CNS
[47] = system: SNB-75 CNS
[48] = system: SW-620 colon
[49] = system: T-47D breast
[50] = system: TK-10 renal
[51] = system: U251 CNS
[52] = system: UACC-257 melanoma
[53] = system: UACC-62 melanoma
[54] = system: UO-31 renal

Cc1cc2ncc(-c3cc4ccccc4c(N4CCN(C)CC4)n3)nc2cc1C
GI50 [1]: 1.68 µM | TGI [1]: 3.57 µM | GI50 [2]: 16.1 µM | TGI [2]: 31.6 µM | GI50 [3]: 81.6 µM | TGI [3]: > 100 µM | GI50 [4]: 2.14 µM | TGI [4]: 4.45 µM | GI50 [5]: 14 µM | TGI [5]: 29.2 µM | GI50 [6]: 1.62 µM | TGI [6]: 3.12 µM | GI50 [7]: 2.22 µM | TGI [7]: 5.93 µM | GI50 [8]: 1.87 µM | TGI [8]: 3.52 µM | GI50 [9]: 6.53 µM | TGI [9]: > 100 µM | GI50 [10]: 33.7 µM | TGI [10]: > 100 µM | GI50 [11]: 1.69 µM | TGI [11]: 3.2 µM | GI50 [12]: 1.67 µM | TGI [12]: 3.09 µM | GI50 [13]: 1.82 µM | TGI [13]: 3.6 µM | GI50 [14]: 1.55 µM | TGI [14]: 3.56 µM | GI50 [15]: 21.2 µM | TGI [15]: 79.5 µM | GI50 [16]: 2.42 µM | TGI [16]: 15.9 µM | GI50 [17]: 12.7 µM | TGI [17]: 39.2 µM | GI50 [18]: 1.63 µM | TGI [18]: 3.29 µM | GI50 [19]: 4.81 µM | TGI [19]: 61.2 µM | GI50 [20]: 1.82 µM | TGI [20]: 3.57 µM | GI50 [21]: 2.34 µM | TGI [21]: 5.47 µM | GI50 [22]: 1.81 µM | TGI [22]: 3.34 µM | GI50 [23]: 1.75 µM | TGI [23]: 3.21 µM | GI50 [24]: 1.75 µM | TGI [24]: 3.42 µM | GI50 [25]: 2.98 µM | TGI [25]: 10.3 µM | GI50 [26]: 1.79 µM | TGI [26]: 3.36 µM | GI50 [27]: 2.32 µM | TGI [27]: 5.27 µM | GI50 [28]: 1.87 µM | TGI [28]: 3.45 µM | GI50 [29]: 11.6 µM | TGI [29]: 28.9 µM | GI50 [30]: 5.76 µM | TGI [30]: > 100 µM | GI50 [31]: 10.3 µM | TGI [31]: > 100 µM | GI50 [32]: 5.62 µM | TGI [32]: > 100 µM | GI50 [33]: 8.87 µM | TGI [33]: 49.2 µM | GI50 [34]: 2.83 µM | TGI [34]: 8.57 µM | GI50 [35]: 5.37 µM | TGI [35]: > 100 µM | GI50 [36]: 2.19 µM | TGI [36]: 5.33 µM | GI50 [37]: 2.01 µM | TGI [37]: 4.8 µM | GI50 [38]: 13.2 µM | TGI [38]: 55 µM | GI50 [39]: 14.2 µM | TGI [39]: 31.6 µM | GI50 [40]: 1.87 µM | TGI [40]: 3.98 µM | GI50 [41]: 16 µM | TGI [41]: 31.2 µM | GI50 [42]: 1.74 µM | TGI [42]: 3.19 µM | GI50 [43]: 12.8 µM | TGI [43]: 29.4 µM | GI50 [44]: 36.6 µM | TGI [44]: > 100 µM | GI50 [45]: 6.07 µM | TGI [45]: 65.8 µM | GI50 [46]: 20.2 µM | TGI [46]: 89.8 µM | GI50 [47]: 11 µM | TGI [47]: 24 µM | GI50 [48]: 1.85 µM | TGI [48]: 3.41 µM | GI50 [49]: 3.59 µM | TGI [49]: 15.4 µM | GI50 [50]: 20 µM | TGI [50]: 44.1 µM | GI50 [51]: 2.11 µM | TGI [51]: 4.91 µM | GI50 [52]: 12.8 µM | TGI [52]: 26.4 µM | GI50 [53]: 1.89 µM | TGI [53]: 3.89 µM | GI50 [54]: 4.35 µM | TGI [54]: 17.2 µM
